Experimental data as given in article PMC7827406, “Structure–Activity Relationship (SAR) Study of Spautin-1 to Entail the Discovery of Novel NEK4 Inhibitors” (International Journal of Molecular Sciences, 2021).
Where two headings read alike, the source gives them in different places.

Legend:
Test in all cases: biochemical
Parameters in all cases: Eurofins KinaseProfiler full panel at Km ATP, residual kinase activity (%) relative to DMSO
IKKα(h) = target: T1, IKKα(h) (Homo sapiens, UniProt O15111)
T1 construct: gene CHUK
T1 sequence (O15111 1-745): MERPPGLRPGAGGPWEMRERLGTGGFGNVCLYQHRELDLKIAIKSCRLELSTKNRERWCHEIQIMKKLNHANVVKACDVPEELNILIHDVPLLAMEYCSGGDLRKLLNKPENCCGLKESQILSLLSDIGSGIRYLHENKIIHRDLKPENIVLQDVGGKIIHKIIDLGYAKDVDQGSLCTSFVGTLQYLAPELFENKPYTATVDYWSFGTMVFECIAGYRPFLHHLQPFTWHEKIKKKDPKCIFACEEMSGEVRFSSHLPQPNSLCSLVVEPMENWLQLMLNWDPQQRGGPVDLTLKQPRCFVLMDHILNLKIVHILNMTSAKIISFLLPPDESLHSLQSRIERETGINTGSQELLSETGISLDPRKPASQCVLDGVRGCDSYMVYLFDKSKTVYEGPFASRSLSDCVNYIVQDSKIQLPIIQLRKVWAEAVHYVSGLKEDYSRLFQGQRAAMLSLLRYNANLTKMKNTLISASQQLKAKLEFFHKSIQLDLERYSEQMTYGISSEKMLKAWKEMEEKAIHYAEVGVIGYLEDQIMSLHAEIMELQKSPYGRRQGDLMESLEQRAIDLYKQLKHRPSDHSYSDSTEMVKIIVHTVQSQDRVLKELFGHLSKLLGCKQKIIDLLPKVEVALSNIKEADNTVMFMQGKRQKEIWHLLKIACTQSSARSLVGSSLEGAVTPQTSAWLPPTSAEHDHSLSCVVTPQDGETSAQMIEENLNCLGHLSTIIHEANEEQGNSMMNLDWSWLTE
Procedure, shortened: (§1)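 Compounds screened at 10 µM in radiometric kinase activity assays at Km ATP, reported as remaining kinase activity (%). A KINOMEscan competition-binding screen at 10 µM measured DNA-tagged kinase retained on immobilized active-site ligand by qPCR.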

EphB1(h) = target: T2, EphB1(h) (Homo sapiens, UniProt P54762)
T2 sequence (P54762 1-984): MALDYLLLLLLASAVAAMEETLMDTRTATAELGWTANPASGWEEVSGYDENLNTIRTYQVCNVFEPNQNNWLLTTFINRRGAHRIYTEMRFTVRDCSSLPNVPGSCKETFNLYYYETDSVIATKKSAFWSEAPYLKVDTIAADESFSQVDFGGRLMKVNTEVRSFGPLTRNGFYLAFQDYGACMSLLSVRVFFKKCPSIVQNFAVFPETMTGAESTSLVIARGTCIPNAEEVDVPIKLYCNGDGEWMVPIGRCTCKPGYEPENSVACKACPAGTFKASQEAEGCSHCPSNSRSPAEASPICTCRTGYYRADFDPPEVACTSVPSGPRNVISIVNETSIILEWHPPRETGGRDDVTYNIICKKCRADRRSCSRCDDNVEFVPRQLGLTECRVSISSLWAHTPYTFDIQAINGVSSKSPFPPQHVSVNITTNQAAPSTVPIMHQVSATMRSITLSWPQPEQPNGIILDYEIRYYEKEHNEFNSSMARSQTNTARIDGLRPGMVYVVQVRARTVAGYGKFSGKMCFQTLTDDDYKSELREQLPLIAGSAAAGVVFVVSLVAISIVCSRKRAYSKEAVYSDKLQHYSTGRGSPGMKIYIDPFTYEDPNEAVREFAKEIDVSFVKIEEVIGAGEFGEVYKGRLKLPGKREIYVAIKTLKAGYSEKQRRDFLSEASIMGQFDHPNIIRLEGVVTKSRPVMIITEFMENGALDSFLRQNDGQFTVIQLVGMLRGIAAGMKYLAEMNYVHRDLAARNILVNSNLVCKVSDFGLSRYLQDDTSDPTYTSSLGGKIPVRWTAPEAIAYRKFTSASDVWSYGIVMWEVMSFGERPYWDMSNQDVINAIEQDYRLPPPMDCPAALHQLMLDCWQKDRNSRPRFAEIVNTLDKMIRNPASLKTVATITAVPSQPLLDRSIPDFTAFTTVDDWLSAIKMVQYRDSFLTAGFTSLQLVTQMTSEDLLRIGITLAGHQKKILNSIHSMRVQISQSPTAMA
Procedure, shortened: as §1

[1] = target: T3, PI3 Kinase (p110a(H1047R)/p85a)(h) (Homo sapiens, UniProt P42336, H1047R)
T3 construct: gene PIK3CA
T3 sequence (P42336 whole entry H1047R): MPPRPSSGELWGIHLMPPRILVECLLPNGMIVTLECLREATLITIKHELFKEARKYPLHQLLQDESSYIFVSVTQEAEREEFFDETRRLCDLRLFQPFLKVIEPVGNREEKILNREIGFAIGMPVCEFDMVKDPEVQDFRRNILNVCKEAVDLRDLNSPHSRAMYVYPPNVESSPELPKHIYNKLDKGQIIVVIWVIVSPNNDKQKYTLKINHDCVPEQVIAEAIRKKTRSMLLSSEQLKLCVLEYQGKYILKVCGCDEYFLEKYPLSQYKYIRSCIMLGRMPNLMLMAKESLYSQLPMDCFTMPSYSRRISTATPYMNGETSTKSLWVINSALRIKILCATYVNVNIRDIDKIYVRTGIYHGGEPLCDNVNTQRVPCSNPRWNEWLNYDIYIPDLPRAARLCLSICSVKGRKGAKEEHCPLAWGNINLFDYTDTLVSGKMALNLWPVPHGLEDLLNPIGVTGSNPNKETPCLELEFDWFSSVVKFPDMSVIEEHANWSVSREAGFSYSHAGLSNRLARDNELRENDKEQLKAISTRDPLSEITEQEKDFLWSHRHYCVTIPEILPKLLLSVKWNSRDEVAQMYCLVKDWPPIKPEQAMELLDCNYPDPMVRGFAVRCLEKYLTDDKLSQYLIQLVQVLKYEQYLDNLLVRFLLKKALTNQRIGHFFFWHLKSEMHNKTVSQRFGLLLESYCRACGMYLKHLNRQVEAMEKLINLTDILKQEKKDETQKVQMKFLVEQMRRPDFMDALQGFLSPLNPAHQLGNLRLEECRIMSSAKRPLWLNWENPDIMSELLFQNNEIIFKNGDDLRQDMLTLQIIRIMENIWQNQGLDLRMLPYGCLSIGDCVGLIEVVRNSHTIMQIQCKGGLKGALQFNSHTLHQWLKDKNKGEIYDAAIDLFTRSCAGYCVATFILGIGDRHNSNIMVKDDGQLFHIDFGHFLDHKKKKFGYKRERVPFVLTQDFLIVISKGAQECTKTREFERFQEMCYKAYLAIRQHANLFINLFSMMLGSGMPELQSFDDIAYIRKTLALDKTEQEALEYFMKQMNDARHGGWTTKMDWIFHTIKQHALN
T3 sequence (P27986 whole entry partner): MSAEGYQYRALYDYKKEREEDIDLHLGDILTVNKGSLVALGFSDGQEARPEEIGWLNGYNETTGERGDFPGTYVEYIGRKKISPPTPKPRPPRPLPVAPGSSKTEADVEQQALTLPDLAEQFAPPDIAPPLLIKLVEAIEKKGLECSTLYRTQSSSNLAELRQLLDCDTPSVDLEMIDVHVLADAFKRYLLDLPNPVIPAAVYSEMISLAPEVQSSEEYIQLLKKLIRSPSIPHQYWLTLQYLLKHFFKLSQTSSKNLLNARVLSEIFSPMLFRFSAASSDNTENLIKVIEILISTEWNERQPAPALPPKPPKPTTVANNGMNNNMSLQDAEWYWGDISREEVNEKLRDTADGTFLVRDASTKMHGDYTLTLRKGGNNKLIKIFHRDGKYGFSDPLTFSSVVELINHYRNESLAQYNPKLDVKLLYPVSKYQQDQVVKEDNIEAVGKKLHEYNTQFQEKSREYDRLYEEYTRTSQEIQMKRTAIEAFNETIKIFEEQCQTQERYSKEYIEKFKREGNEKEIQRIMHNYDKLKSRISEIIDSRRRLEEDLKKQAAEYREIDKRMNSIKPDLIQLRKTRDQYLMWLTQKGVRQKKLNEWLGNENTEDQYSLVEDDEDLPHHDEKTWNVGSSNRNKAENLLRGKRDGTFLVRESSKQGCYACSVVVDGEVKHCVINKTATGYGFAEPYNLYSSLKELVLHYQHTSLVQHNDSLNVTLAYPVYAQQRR
Procedure, shortened: as §1

CHK2(h) = target: T4, CHK2(h) (Homo sapiens, UniProt O96017)
T4 construct: gene CHEK2
T4 sequence (O96017 whole entry): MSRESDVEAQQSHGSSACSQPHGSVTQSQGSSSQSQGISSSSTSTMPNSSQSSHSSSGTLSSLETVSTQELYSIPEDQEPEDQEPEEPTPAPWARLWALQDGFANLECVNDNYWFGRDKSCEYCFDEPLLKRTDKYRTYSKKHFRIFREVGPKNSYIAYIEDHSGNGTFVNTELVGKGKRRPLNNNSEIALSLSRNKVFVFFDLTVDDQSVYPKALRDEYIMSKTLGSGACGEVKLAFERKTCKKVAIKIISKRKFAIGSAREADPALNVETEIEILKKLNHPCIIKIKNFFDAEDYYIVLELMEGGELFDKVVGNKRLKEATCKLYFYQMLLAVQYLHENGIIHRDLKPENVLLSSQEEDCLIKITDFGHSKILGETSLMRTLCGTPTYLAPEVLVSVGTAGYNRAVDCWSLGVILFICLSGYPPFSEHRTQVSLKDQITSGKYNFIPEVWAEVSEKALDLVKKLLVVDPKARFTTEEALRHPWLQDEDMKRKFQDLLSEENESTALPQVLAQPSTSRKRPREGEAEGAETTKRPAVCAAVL
Procedure, shortened: as §1

PAK5(h) = PAK5(h) (Homo sapiens, UniProt Q9P286)
Sequence of PAK5(h) (Q9P286 whole entry): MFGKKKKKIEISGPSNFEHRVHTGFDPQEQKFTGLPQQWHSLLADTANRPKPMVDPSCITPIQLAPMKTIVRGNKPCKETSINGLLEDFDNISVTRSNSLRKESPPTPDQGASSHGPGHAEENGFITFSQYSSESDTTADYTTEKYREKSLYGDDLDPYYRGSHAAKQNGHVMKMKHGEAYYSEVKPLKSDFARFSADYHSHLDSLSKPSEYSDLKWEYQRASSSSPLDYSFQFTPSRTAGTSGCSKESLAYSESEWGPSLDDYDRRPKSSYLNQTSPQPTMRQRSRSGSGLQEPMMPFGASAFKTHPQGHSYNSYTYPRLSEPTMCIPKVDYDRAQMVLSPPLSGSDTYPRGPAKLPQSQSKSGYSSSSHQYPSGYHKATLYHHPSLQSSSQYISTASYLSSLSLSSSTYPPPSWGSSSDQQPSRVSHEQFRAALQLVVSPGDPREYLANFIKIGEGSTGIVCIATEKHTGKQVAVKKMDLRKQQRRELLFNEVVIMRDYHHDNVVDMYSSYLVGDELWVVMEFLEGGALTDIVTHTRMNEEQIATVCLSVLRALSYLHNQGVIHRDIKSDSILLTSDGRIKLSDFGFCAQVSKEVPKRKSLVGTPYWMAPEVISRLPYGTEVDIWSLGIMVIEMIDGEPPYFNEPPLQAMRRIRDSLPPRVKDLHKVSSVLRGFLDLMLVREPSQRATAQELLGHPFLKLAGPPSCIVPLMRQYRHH
Procedure, shortened: as §1

Abl(h) = target: T5, Abl(h) (Homo sapiens, UniProt P00519)
T5 construct: gene ABL1
T5 sequence (P00519 whole entry): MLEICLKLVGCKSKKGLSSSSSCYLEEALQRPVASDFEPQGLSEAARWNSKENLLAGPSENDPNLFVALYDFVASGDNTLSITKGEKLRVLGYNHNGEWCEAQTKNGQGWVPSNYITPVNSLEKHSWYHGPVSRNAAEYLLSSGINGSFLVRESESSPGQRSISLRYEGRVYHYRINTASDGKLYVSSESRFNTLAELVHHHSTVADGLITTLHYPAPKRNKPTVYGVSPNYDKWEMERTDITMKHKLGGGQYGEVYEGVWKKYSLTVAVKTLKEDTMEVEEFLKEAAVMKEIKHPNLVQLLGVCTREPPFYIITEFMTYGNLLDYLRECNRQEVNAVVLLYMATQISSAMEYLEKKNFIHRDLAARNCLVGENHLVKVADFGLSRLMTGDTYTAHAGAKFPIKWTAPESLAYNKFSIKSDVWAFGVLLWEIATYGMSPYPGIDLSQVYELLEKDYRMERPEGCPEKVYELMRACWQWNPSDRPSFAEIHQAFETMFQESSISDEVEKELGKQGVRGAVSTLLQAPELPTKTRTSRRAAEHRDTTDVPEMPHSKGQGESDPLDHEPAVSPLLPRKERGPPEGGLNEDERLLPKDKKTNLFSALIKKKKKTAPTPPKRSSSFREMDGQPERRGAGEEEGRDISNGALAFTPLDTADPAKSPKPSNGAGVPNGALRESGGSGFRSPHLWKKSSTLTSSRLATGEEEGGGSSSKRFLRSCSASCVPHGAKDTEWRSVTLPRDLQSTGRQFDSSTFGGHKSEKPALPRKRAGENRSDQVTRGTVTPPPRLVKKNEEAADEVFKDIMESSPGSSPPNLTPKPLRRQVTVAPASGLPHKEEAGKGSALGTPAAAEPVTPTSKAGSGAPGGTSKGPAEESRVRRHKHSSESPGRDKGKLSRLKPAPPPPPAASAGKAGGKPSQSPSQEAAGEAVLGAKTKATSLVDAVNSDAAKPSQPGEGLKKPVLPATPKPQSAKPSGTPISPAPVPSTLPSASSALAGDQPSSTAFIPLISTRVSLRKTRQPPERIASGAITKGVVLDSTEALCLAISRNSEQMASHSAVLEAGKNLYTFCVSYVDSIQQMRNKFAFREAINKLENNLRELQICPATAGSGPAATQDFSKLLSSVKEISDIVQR
Procedure, shortened: as §1

[2] = read-out: Residual activity (%) Spautin-1 5aa
[3] = read-out: Residual activity (%) 5as
[4] = read-out: Residual activity (%) 5at
[5] = read-out: Residual activity (%) 5ay

Fc1ccc(CNc2ncnc3ccc(F)cc23)cc1 [5aa, 6-Fluoro-N-(4-fluorobenzyl)-4-Quinazolinamine]
remaining activity at 10 µM (IKKα(h); [2]): 72% | remaining activity at 10 µM (EphB1(h); [2]): 84% | remaining activity at 10 µM [1, 2]: 99% | remaining activity at 10 µM (CHK2(h); [2]): 67% | remaining activity at 10 µM (PAK5(h); [2]): 95% | remaining activity at 10 µM (Abl(h); [2]): 83%

Fc1ccc(CCNc2ncnc3ccc(F)cc23)cc1 [5as, 6-Fluoro-N-[2-(4-Fluorophenyl)Ethyl]-4-Quinazolinamine]
remaining activity at 10 µM (IKKα(h); [3]): 100% | remaining activity at 10 µM (EphB1(h); [3]): 90% | remaining activity at 10 µM [1, 3]: 97% | remaining activity at 10 µM (CHK2(h); [3]): 73% | remaining activity at 10 µM (PAK5(h); [3]): 85% | remaining activity at 10 µM (Abl(h); [3]): 91%

Fc1ccc2ncnc(NCCc3ccc(Cl)cc3)c2c1 [5at, N-[2-(4-Chlorophenyl)Ethyl]-6-Fluoro-4-Quinazolinamine]
remaining activity at 10 µM (IKKα(h); [4]): 91% | remaining activity at 10 µM (EphB1(h); [4]): 95% | remaining activity at 10 µM [1, 4]: 94% | remaining activity at 10 µM (CHK2(h); [4]): 75% | remaining activity at 10 µM (PAK5(h); [4]): 86% | remaining activity at 10 µM (Abl(h); [4]): 96%

COc1ccc2ncnc(Nc3cccc(F)c3)c2c1 [5ay, N-(3-Fluorophenyl)-6-Methoxy-4-Quinazolinamine]
remaining activity at 10 µM (IKKα(h); [5]): 86% | remaining activity at 10 µM (EphB1(h); [5]): 88% | remaining activity at 10 µM [1, 5]: 96% | remaining activity at 10 µM (CHK2(h); [5]): 67% | remaining activity at 10 µM (PAK5(h); [5]): 83% | remaining activity at 10 µM (Abl(h); [5]): 74%
